These results are taken from EP3057951B1, “METHYLENE LINKED QUINOLINYL MODULATORS OF ROR-GAMMA-T” (Janssen Pharmaceutica NV, priority 2013, dated 2015).

In assay [1] the target is T1, wild type human RORγt ligand binding domain (RORyt LBD) (Homo sapiens, UniProt P51449).
T1 construct: His-tag (N); TurboTEV protease cleavage site (ENLYFQG) (N); made in house; host or cells: E. coli (pHIS1, modified pET vector)
T1 sequence (P51449 258-518): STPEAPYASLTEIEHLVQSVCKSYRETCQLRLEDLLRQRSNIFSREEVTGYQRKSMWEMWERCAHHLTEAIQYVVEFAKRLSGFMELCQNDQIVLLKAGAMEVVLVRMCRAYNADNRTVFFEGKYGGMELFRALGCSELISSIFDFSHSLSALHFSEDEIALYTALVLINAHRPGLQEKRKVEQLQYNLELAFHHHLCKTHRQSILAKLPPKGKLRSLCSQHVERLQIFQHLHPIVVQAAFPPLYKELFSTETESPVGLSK
Nature of the assay: RORγt ThermoFluor assay (thermal shift, binding affinity KD). For orientation: Differential scanning fluorimetry follows unfolding on heating by fluorescence.

Assay [2] deals with T2, wild type human RORγt LBD (Homo sapiens, UniProt P51449).
T2 construct: expressed in transfected cells; host or cells: HEK293T
T2 sequence (P51449 258-518): T1 sequence (P51449 258-518)
Description: RORγt (LBD) Reporter Assay (GAL4-luciferase, HEK293T cells). The format is cell-based. The following applies: for RORγt (LBD) Reporter Assay, % inhibition @ 6 µM: 6 µM compound concentration; for inhibition at 6 µM: HEK-293T, read-out: RORγt (LBD) Reporter Assay, % inhibition @ 6 µM, 6 µM compound concentration. In general terms: In a reporter assay the amount or activity of a reporter protein is the signal.

The mark [3] stands for this setting: HEK293T cells, value after the comma with ∼, > or < could not be included in the average.

Where a name gives a salt, the structure may show the parent alone. Read-outs that look alike come from different tables or passages of the source.

For orientation: Kd means the free concentration of one partner at which half of the binding sites on the other are occupied at equilibrium, for simple one-to-one binding. The IC50 is the concentration at which inhibition is half-maximal. The low end stands for higher potency, the high end for lower potency. With `COc1nc2ccc(C(O)(c3ccccc3)C3CCN(C(C)=O)CC3)cc2c(Cl)c1Cc1ccc(-n2ccnc2)cc1` (stereo not drawn) [Example 16b], the dissociation constant Kd in assay [1] was found to be 33 nM. The “RORγt (LBD) Reporter Assay, % inhibition @ 6 µM” value in assay [2] is recorded as 96%. This molecule gave a concentration for half-maximal inhibition (IC50) in assay [2] (setting [3]) of 91 nM.

Turning to `Cn1cncc1C(O)(c1ccc(C(F)(F)F)nc1)c1ccc2nc(C#N)c(Cc3ccc(F)cc3)c(C#N)c2c1` (single isomer, unassigned) [Example 53c, 3-(4-Fluorobenzyl)-6-(hydroxy(1-methyl-1H-imidazol-5-yl)(6-(trifluoromethyl)pyridin-3-yl)methyl)quinoline-2,4-dicarbonitrile], the Kd in assay [1] came to 48 nM. Further, in assay [2], the “RORγt (LBD) Reporter Assay, % inhibition @ 6 µM” value came out at 74%. For the same molecule, in assay [2] (setting [3]), inhibition was half-maximal at 680 nM (IC50).

As for `Cn1cncc1C(O)(c1ccc2nc(C(F)(F)F)c(Cc3ccccc3)c(C#N)c2c1)c1ccccn1` (single isomer, unassigned) [Example 99b, 3-Benzyl-6-(hydroxy(1-methyl-1H-imidazol-5-yl)(pyridin-2-yl)methyl)-2-(trifluoromethyl)quinoline-4-carbonitrile], the Kd in assay [1] is 810 nM. The half-inhibitory concentration (IC50) in assay [2] (setting [3]) was around 2000 nM. The inhibition at 6 µM in assay [2] amounted to 86%.

For `Cc1ccc(C(O)(c2ccc3nc(NC4CC4)c(Cc4ccc(C(F)(F)F)cc4)c(Cl)c3c2)c2cnnn2C)c(C)n1` (stereo not drawn) [Example 143a, {4-Chloro-2-(cyclopropylamino)-3-[4-(trifluoromethyl)benzyl]quinolin-6-yl}(2,6-dimethylpyridin-3-yl)(1-methyl-1H-1,2,3-triazol-5-yl)methanol], the Kd in assay [1] was determined as 7.2 nM. Besides, the inhibition at 6 µM in assay [2] (HEK293T cells) was determined as 101%.

As to `COc1ccc(C(O)(c2cccnc2)c2ccc3nc(OC)c(Cc4ccc(-n5cccn5)cc4)c(Cl)c3c2)cc1OC` (stereo not drawn) [Example 159a, (3-(4-(1H-Pyrazol-1-yl)benzyl)-4-chloro-2-methoxyquinolin-6-yl)(3,4-dimethoxyphenyl)(pyridin-3-yl)methanol], the Kd in assay [1] turned out to be 29 nM. In addition, in assay [2] (HEK293T cells), inhibition was half-maximal at 120 nM (IC50) and the inhibition at 6 µM amounted to 107%.

`COc1nc2ccc(C(O)(c3ccc(C)nc3C)c3cnnn3C)cc2c(Cl)c1Cc1ccc(-n2cccn2)cc1` (stereo not drawn) [Example 17a, (3-(4-(1H-Pyrazol-1-yl)benzyl)4-chloro-2-methoxyquinolin-6-yl)(2,6-dimethylpyridin-3-yl)(1-methyl-1H-1,2,3-triazol-5-yl)methanol]: the Kd in assay [1] is 0.91 nM. The IC50 in assay [2] (setting [3]) turned out to be 10 nM. Further, in assay [2], the inhibition at 6 µM came to 99%.

Take `COc1nc2ccc(C(O)(c3cnnn3C)c3cnc(C)n3C)cc2c(Cl)c1Cc1ccc(C(F)(F)F)nc1` (single isomer, unassigned) [Example 43b, (4-Chloro-2-methoxy-3-((6-(trifluoromethyl)pyridin-3-yl)methyl)quinolin-6-yl)(1,2-dimethyl-1H-imidazol-5-yl)(1-methyl-1H-1,2,3-triazol-5-yl)methanol]: in assay [1], the Kd amounted to 0.49 nM. Further, half-maximal inhibition in assay [2] (setting [3]) (IC50) was put at 10 nM. In addition, in assay [2], the inhibition at 6 µM turned out to be 98%.

For the molecule `Cn1cncc1C(O)(c1ccc(C(F)(F)F)nc1)c1ccc2nc(Cl)c(Cc3ccccc3)c(Cl)c2c1` (stereo not drawn) [Example 109, (3-Benzyl-2,4-dichloroquinolin-6-yl)(1-methyl-1H-imidazol-5-yl)(6-(trifluoromethyl)pyridin-3-yl)methanol•TFA], in assay [1], the Kd worked out at 14 nM. In assay [2] (setting [3]), the IC50 was around 4000 nM. In addition, the inhibition at 6 µM in assay [2] was 80%.

Consider `COc1nc2ccc(C(O)(C3CN(C(C)=O)C3)C3CN(C(C)=O)C3)cc2c(Cl)c1Cc1ccc(C(F)(F)F)cc1` [Example 3, 1,1'-(3,3'-((4-Chloro-2-methoxy-3-(4-(trifluoromethyl)benzyl)quinolin-6-yl)(hydroxy)methylene)bis(azetidine-3,1-diyl))diethanone], for which the Kd in assay [1] was 46 nM.

Turning to `COc1nc2ccc(C(O)(c3ccccn3)c3cncn3C)cc2c(Cl)c1Cc1cc2ccccc2s1` (single isomer, unassigned) [Example 59b, (3-(Benzo[b]thiophen-2-ylmethyl)-4-chloro-2-methoxyquinolin-6-yl)(1-methyl-1H-imidazol-5-yl)(pyridin-2-yl)methanol], in assay [1], the Kd turned out to be 34 nM.

For `Cc1nc2ccc(C(O)(c3ccnc(C(F)(F)F)c3)c3cncn3C)cc2c(Cl)c1Cc1ccc(C(F)(F)F)cc1` (stereo not drawn) [Example 30a, (4-Chloro-2-methyl-3-(4-(trifluoromethyl)benzyl)quinofin-6-yl)(1-methyl-1H-imidazol-5-yl)(2-(trifluoromethyl)pyridin4-yl)methanol], the dissociation constant (Kd) in assay [1] came out at 0.28 nM.

As to `Cc1nc2ccc(C(O)(c3ccnc(C(F)(F)F)c3)c3cncn3C)cc2c(Cl)c1Cc1ccc(C(F)(F)F)cc1` (single isomer, unassigned) [Example 30b, (4-Chloro-2-methyl-3-(4-(trifluoromethyl)benzyl)quinolin-6-yl)(1-methyl-1H-imidazol-5-yl)(2-(trifluoromethyl)pyridin-4-yl)methanol], the Kd in assay [1] came to 300 nM.

As for `COc1nc2ccc(C(O)(c3cnnn3C)C3CN(C(N)=O)C3)cc2c(Cl)c1Cc1ccc(C(F)(F)F)cc1` (stereo not drawn) [Example 91, 3-((4-Chloro-2-methoxy-3-(4-(trifluoromethyl)benzyl)quinolin-6-yl)(hydroxy)(1-methyl-1H-1,2,3-triazol-5-yl)methyl)azetidine-1-carboxamide], in assay [1], the Kd was determined as 0.2 nM.

As to `Cc1nc2ccc(C(O)(c3ccnc(C(F)(F)F)c3)c3cncn3C)cc2c(Cl)c1Cc1ccc(C(F)(F)F)cc1` (single isomer, unassigned) [Example 30c, (4-Chloro-2-methyl-3-(4-(trifluoromethyl)benzyl)quinolin-6-yl)(1-methyl-1H-imidazol-5-yl)(2-(trifluoromethyl)pyridin-4-yl)methanol], the Kd in assay [1] turned out to be 0.092 nM.

`COc1nc2ccc(C(O)(c3ccc(C)nc3C)c3cnc(C)n3C)cc2c(Cl)c1Cc1ccc(C(F)(F)F)cc1` (single isomer, unassigned) [Example 57c, (4-Chloro-2-methoxy-3-(4-(trifluoromethyl)benzyl)quinolin-6-yl)(1,2-dimethyl-1H-imidazol-5-yl)(2,6-dimethylpyridin-3-yl)methanol]: in assay [1], the Kd is 0.02 nM.

In the case of `COc1nc2ccc(C(O)(c3ccccn3)c3cncn3C)cc2c(Cl)c1Cc1cc2ccccc2s1` (single isomer, unassigned) [Example 59c, (3-(Benzo[b]thiophen-2-ylmethyl)-4-chloro-2-methoxyquinolin-6-yl)(1-methyl-1H-imidazol-5-yl)(pyridin-2-yl)methanol], the Kd in assay [1] worked out at 800 nM.

Take `COc1nc2ccc(C(O)(c3c(C)noc3C)c3cnnn3C)cc2c(C#N)c1Cc1ccc(C(F)(F)F)cc1` (stereo not drawn) [Example 94, 6-((3,5-Dimethylisoxazol-4-yl)(hydroxy)(1-methyl-1H-1,2,3-triazol-5-yl)methyl)-2-methoxy-3-(4-(trifluoromethyl)benzyl)quinoline-4-carbonitrile]: in assay [1], the Kd came to 0.48 nM.

In the case of `CCc1nc2ccc(C(O)(c3cnc(C)n3C)C3CCOCC3)cc2c(Cl)c1Cc1ccc(C(F)(F)F)cc1` (stereo not drawn) [Example 34a, (4-Chloro-2-ethyl-3-(4-(trifluoromethyl)benzyl)quinolin-6-yl)(1,2-dimethyl-1H-imidazol-5-yl)(tetrahydro-2H-pyran-4-yl)methanol], the Kd in assay [1] is 0.03 nM.

Take `COc1nc2ccc(C(O)(c3ccc(C(F)(F)F)nc3)c3cnnn3C)cc2c(Cl)c1Cc1ccc(C(F)(F)F)cc1` (racemic) [Example 75a, (4-Chloro-2-methoxy-3-(4-(trifluoromethyl)benzyl)quinolin-6-yl)(1-methyl-1H-1,2,3-triazol-5-yl)(6-(trifluoromethyl)pyridin-3-yl)methanol]: the Kd in assay [1] came to 3.3 nM.

Turning to `Cc1nc2ccc(C(O)(c3cnnn3C)C3CN(C(=O)OC(C)(C)C)C3)cc2c(Cl)c1Cc1ccc(C(F)(F)F)cc1` (stereo not drawn) [Example 31, tert-Butyl 3-((4-chloro-2-methyl-3-(4-(trifluoromethyl)benzyl)quinolin-6-yl)(hydroxy)(1-methyl-1H-1,2,3-triazol-5-yl)methyl)azetidine-1-carboxylate], the Kd in assay [1] was found to be 0.79 nM.

Take `CCc1nc2ccc(C(O)(c3ccccc3)C3CCN(C(C)=O)CC3)cc2c(Cl)c1Cc1ccc(-n2cccn2)cc1` (stereo not drawn) [Example 35, 1-(4-((3-(4-(1H-Pyrazol-1-yl)benzyl)4-chloro-2-ethylquinolin-6-yl)(hydroxy)(phenyl)methyl)piperidin-1-yl)ethanone]: in assay [1], the Kd turned out to be 3 nM.

Regarding `CCc1nc2ccc(C(O)(c3cnnn3C)C3CCOCC3)cc2c(Cl)c1Cc1ccc(C(F)(F)F)cc1` (stereo not drawn) [Example 33a, (4-Chloro-2-ethyl-3-(4-(trifluoromethyl)benzyl)quinolin-6-yl)(1-methyl-1H-1,2,3-triazol-5-yl)(tetrahydro-2H-pyran-4-yl)methanol], the Kd in assay [1] was 0.05 nM.

Turning to `COc1nc2ccc(C(O)(c3cnc(C)n3C)C3CCOCC3)cc2c(Cl)c1Cc1ccc(C(F)(F)F)cc1` (single isomer, unassigned) [Example 86c, (4-Chloro-2-methoxy-3-(4-(trifluoromethyl)benzyl)quinolin-6-yl)(1,2-dimethyl-1H-imidazol-5-yl)(tetrahydro-2H-pyran-4-yl)methanol], in assay [1], the Kd was found to be 0.06 nM.

Consider `COc1nc2ccc(C(O)(c3c(C)noc3C)c3cnnn3C)cc2c(Cl)c1Cc1ccc(C(F)(F)F)cc1` (stereo not drawn) [Example 93, (4-Chloro-2-methoxy-3-(4-(trifluoromethyl)benzyl)quinolin-6-yl)(3,5-dimethylisoxazol-4-yl)(1-methyl-1H-1,2,3-triazol-5-yl)methanol], for which the Kd in assay [1] stood at 0.6 nM.
